Laboratory results taken from US8129404B2, “Compounds and uses thereof” (Plexxikon Inc., priority 2009, dated 2012).
Where two headings read alike, the source gives them in different places.

Experiments:
CYP2C9 = target: T1, CYP2C9 (Homo sapiens, UniProt P11712); experiment: CYP inhibition fluorescence assay, CYP2C9; assay type: in vitro ADME; settings: substrate MFC; read-out: Cyp IC50 2C9
T1 construct: purchased BD Biosciences
Experimental: (§1) CYP (Cytochrome P450) enzymes are the major drug metabolizing enzymes present in the liver. The inhibition of CYP enzyme activity (IC50) for each of CYP1A2, CYP2C19, CYP2C9, CYP2D6, CYP3A4(BFC) and CYP3A4(BQ) is determined for compounds, where inhibition of metabolism of a known substrate leads to a decrease in the fluorescence of the metabolized product. The fluorescence of the product is monitored as a function of compound concentration. Compounds are dissolved in dimethyl sulfoxide to a concentration of 100 mM. These are diluted 1 μL into 82 μL of acetonitrile. An 11 μL aliquot of this solution is then added to 204 μL of cofactor mix (1.3% NADPH Regeneration system Solution A, 1.04% NADPH Regeneration system Solution B from BD Biosciences, 5% acetonitrile and 0.05% dimethyl sulfoxide). These are then serially diluted 160 μL to 160 μL co-factor mix for a total of 10 points. A 10 μL aliquot of this final mixture is dispensed into 384 well assay plates and incubated for 10 minutes at 37° C. Enzyme and substrate mix (10 μL; 0.5 pmol CYP1A2/5 μM CEC; 1.0 pmol CYP2C9/75 μM MFC; 0.5 pmol CYP2C19/25 μM CEC; 1.5 pmol CYP2D6/1.5 μM AMMC; 1.0 pmol CYP3A4/50 μM BFC; or 1.0 pmol CYP3A4/40 μM BQ) is added to these assay plates. […] (CYP1A2-15 min; CYP2C9-45 min; CYP2C19, 2D6 and 3A4-30 min) and read in a Tecan Safire 2 plate reader (CYP1A2, 2C19 and 3A4 409 ex/460 em; CYP2C9 and 2D6 409 ex/530 em). […]

c-Raf-1 = target: T2, c-Raf-1 (Homo sapiens, UniProt P04049); experiment: Raf kinase biochemical assay (biotin-MEK1 phosphorylation, AlphaScreen), c-Raf-1; settings: 100 μM ATP, biotin-MEK1 substrate
T2 construct: purchased Upstate Biotechnology
T2 sequence (P04049 whole entry): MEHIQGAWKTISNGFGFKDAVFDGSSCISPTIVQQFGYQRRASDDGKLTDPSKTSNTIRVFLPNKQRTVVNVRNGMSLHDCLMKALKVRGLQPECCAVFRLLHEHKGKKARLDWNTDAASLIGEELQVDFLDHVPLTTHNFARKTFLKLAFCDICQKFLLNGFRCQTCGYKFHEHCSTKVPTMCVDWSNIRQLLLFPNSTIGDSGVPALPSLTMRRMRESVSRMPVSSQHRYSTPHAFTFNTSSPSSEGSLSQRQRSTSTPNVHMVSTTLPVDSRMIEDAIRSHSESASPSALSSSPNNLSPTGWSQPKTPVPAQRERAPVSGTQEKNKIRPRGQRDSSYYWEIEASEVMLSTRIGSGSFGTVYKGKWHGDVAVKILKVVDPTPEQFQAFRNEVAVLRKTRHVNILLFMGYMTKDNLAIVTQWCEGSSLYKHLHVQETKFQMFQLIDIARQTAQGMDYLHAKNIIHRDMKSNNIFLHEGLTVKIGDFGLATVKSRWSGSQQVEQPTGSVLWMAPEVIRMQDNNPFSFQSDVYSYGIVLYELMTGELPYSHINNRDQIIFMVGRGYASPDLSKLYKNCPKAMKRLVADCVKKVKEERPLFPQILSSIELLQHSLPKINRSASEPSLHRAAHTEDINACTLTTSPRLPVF
Experimental: (§2) Assays for biochemical and cell based activity are known in the art, for example, as described in PCT publication WO 2007/002433, the disclosure of which is hereby incorporated by reference as it relates to such assays. For example, the biochemical activity IC50 values are determined with respect to inhibition of B-Raf kinase activity, c-Raf-1 kinase activity, or B-Raf V600E kinase activity, where inhibition of phosphorylation of a peptide substrate is measured as a function of compound concentration. Compounds to be tested are diluted in dimethyl sulfoxide to a concentration of 0.1 mM. These are serially diluted 15 μL into 30 μL of dimethyl sulfoxide seven times in 96 well plates for a total of 8 dilution points, and for each dilution point 1 μL is added to a well of an assay plate. Plates are prepared such that each well in a 384 well plate contains 1 μL of compound in 10 μL volume with 0.1 ng Raf enzyme (i.e. any of B-Raf, c-Raf-1 or B-Raf V600E, Upstate Biotechnology or prepared by methods known to one of skill in the art), 50 mM HEPES, pH 7.0, 50 mM NaCl, 2 mM MgCl2, 1 mM MnCl2, 0.01% Tween-20, 1 mM DTT, and 100 nM biotin-MEK1 as substrate. The reaction is started with addition of 10 μL of 200 μM ATP (i.e. final 100 μM ATP). […] The plates are incubated for 3 hours at room temperature and read on Envision reader (Perkin Elmer). […]

CYP1A2 = target: T3, CYP1A2 (Homo sapiens, UniProt P05177); experiment: CYP inhibition fluorescence assay, CYP1A2; assay type: in vitro ADME; settings: substrate CEC; read-out: Cyp IC50 1A2
T3 construct: purchased BD Biosciences
T3 sequence (P05177 1-516): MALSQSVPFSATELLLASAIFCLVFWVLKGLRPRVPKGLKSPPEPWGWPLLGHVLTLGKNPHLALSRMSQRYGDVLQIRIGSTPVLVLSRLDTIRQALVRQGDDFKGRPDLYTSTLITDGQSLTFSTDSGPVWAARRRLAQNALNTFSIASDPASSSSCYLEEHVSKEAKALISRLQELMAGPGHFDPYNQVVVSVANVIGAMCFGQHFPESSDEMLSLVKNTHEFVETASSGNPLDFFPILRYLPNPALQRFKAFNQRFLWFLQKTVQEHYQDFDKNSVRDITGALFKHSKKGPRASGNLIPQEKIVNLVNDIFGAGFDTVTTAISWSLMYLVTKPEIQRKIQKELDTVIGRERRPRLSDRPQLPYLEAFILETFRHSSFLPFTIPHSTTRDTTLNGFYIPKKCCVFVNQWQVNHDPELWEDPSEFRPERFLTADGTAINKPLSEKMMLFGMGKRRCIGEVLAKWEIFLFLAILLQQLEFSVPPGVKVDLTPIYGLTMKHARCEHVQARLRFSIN
Experimental: as §1

CYP3A4(BQ) = target: T4, CYP3A4(BQ) (Homo sapiens, UniProt P08684); experiment: CYP inhibition fluorescence assay, CYP3A4 with BQ substrate; assay type: in vitro ADME; settings: read-out: Cyp IC50 3A4(BQ)
T4 construct: purchased BD Biosciences
T4 sequence (P08684 whole entry): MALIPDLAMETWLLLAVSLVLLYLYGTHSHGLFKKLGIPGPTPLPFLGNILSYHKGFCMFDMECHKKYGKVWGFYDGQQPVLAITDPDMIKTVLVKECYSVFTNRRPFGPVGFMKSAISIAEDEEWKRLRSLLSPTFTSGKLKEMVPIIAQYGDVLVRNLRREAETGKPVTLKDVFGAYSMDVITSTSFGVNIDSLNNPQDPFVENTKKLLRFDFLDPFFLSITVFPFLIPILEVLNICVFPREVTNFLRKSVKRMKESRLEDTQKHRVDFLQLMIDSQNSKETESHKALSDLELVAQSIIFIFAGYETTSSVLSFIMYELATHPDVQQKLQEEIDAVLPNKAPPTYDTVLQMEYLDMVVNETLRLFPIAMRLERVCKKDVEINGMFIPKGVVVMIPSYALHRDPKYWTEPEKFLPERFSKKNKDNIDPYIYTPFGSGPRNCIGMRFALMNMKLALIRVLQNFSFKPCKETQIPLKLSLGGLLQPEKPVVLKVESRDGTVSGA
Experimental: as §1

Fms = Fms (Homo sapiens, UniProt P07333); experiment: Kinase biochemical assay, Fms
Fms, sequence (P07333 20-972, species assumed): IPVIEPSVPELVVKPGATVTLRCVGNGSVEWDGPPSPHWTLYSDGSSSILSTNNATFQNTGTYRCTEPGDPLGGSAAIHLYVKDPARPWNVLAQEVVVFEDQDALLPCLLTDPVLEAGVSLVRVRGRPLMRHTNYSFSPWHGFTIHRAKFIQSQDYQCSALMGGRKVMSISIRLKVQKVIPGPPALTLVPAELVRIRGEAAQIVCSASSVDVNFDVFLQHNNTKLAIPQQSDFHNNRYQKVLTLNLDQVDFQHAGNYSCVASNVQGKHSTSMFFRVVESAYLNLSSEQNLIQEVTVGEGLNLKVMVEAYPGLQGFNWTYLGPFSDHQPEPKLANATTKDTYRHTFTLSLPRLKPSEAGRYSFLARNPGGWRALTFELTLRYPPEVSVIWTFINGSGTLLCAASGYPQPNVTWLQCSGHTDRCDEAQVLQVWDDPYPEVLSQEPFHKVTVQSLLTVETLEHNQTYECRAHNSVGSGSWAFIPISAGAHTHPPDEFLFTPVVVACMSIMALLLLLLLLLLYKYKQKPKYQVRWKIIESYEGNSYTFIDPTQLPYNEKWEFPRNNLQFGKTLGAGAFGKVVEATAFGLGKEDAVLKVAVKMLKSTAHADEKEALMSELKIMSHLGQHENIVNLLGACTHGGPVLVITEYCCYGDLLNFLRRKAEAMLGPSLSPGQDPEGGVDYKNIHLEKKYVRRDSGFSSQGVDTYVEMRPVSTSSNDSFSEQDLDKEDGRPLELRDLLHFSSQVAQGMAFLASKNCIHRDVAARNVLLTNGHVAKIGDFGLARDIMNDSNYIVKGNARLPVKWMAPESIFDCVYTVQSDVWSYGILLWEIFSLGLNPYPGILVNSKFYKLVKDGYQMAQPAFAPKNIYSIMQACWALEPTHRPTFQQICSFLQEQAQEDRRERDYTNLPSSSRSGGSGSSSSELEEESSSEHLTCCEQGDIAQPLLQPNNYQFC

Kit = Kit (Homo sapiens, UniProt P10721); experiment: Kinase biochemical assay, Kit
[1] = Turbidity assay of relative solubility in aqueous buffers of varying pH; assay type: physicochemical
Experimental: As an indication of relative solubility, the turbidity of compounds in aqueous solutions is assessed. To assess possible compound properties in different physiological compartments, such as stomach, intestine, and blood, a series of aqueous buffers with varying pH is used. Thus each compound is diluted into four different physiologically relevant buffers and solution turbidity is measured by spectrophotometry.
Compounds are dissolved at a concentration of 25 mM in dimethyl sulfoxide, then serially diluted 1:1 into a 96 well plate, diluting 10 times in pure dimethyl sulfoxide, with the final well of each row a dimethyl sulfoxide blank. In an assay plate, 99 μL of appropriate buffer is added to each well, and 1 μL of each sample dilution is added to the buffer, achieving a range of final total concentrations in aqueous solutions having different pH. […] Control compounds pyrene, estriol and propranolol HCl are also assessed. Plates are spun and then mixed for 1 minute, and the absorbance is read using a Tecan Safire II to read wavelengths in the visible range (490, 535, and 650 nm) at four locations per well, reflecting the degree of turbidity present. The average optical density for each wavelength in each well is graphed vs. compound concentration, and the concentration at which the curve crosses a threshold O.D. of 0.01 for each wavelength is reported as the endpoint turbidity assay result. The average of the three wavelengths is used to compare turbidity of compounds. Compounds are considered to have low solubility if the threshold concentration is <31.3 μM, moderate solubility if the threshold concentration is 31.3 μM to 250 μM, and high solubility if the threshold concentration is >250 μM.

B-Raf = target: T5, B-Raf (Homo sapiens, UniProt P15056); experiment: Raf kinase biochemical assay (biotin-MEK1 phosphorylation, AlphaScreen), B-Raf; settings: 100 μM ATP, biotin-MEK1 substrate
T5 construct: purchased Upstate Biotechnology
Experimental: as §2

Hgk = Hgk (Homo sapiens, UniProt O95819); experiment: Kinase biochemical assay, Hgk
CYP3A4(BFC) = target: T6, CYP3A4(BFC) (Homo sapiens, UniProt P08684); experiment: CYP inhibition fluorescence assay, CYP3A4 with BFC substrate; assay type: in vitro ADME; settings: read-out: Cyp IC50 3A4(BFC)
T6 construct: purchased BD Biosciences
T6 sequence (P08684 whole entry): as the sequence (P08684 whole entry) above
Experimental: as §1

Src = Src (Homo sapiens, UniProt P12931); experiment: Kinase biochemical assay, Src
Src, sequence (P12931 whole entry, species assumed): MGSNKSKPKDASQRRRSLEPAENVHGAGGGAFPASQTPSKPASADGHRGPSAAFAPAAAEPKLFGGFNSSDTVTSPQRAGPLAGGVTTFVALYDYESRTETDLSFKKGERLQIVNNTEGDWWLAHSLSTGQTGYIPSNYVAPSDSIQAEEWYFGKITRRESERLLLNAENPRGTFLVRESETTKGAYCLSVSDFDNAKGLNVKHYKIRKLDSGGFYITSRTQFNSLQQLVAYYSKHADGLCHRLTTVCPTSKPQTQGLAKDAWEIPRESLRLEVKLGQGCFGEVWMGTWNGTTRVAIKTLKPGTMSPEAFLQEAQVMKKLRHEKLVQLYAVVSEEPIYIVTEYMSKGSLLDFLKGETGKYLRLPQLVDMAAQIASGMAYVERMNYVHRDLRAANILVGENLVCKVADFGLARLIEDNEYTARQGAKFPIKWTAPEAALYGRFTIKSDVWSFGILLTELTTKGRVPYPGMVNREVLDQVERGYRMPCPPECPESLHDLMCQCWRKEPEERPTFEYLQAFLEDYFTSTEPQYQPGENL

TrkA = TrkA (Homo sapiens, UniProt P04629); experiment: Kinase biochemical assay, TrkA
TrkA, sequence (P04629 33-796, species assumed): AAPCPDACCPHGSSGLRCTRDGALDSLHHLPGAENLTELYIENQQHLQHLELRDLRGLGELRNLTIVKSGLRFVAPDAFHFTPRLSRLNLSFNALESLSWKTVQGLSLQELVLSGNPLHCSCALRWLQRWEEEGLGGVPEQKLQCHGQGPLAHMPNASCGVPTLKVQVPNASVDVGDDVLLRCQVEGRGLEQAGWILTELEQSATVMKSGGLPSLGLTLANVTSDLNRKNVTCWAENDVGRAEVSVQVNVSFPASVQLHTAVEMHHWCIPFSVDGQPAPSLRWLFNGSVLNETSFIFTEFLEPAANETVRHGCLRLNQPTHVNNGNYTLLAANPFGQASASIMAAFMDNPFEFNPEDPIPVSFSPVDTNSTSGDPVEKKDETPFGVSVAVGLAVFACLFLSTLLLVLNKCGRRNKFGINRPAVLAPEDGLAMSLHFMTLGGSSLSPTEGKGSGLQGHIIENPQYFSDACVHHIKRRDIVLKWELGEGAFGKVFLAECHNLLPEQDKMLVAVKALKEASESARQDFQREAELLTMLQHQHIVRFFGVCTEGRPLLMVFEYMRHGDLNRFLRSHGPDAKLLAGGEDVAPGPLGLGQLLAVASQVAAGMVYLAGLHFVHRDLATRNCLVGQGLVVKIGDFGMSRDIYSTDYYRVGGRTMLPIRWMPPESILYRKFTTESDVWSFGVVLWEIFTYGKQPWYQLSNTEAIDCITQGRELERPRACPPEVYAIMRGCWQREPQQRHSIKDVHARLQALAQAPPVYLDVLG

CYP2C19 = target: T7, CYP2C19 (Homo sapiens, UniProt P33261); experiment: CYP inhibition fluorescence assay, CYP2C19; assay type: in vitro ADME; settings: substrate CEC; read-out: Cyp IC50 2C19
T7 construct: purchased BD Biosciences
T7 sequence (P33261 whole entry): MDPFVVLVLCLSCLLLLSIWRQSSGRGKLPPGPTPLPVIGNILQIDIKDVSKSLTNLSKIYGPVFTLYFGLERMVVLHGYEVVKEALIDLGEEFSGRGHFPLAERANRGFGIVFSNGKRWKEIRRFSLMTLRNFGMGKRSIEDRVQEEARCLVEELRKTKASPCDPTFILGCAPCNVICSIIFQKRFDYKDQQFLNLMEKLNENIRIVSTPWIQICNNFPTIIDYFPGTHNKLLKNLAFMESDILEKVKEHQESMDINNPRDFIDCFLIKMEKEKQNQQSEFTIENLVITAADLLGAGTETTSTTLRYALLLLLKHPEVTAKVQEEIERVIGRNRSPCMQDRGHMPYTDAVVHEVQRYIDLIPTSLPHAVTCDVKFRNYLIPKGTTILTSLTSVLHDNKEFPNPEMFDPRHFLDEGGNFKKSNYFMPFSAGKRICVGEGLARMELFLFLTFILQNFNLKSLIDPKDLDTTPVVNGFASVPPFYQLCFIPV
Experimental: as §1

B-Raf mutant V600E = target: T8, B-Raf mutant V600E (Homo sapiens, UniProt P15056, V600E); experiment: Raf kinase biochemical assay (biotin-MEK1 phosphorylation, AlphaScreen), B-Raf V600E; settings: 100 μM ATP, biotin-MEK1 substrate
T8 construct: purchased Upstate Biotechnology
Experimental: as §2

CYP2D6 = target: T9, CYP2D6 (Homo sapiens, UniProt P10635); experiment: CYP inhibition fluorescence assay, CYP2D6; assay type: in vitro ADME; settings: substrate AMMC; read-out: Cyp IC50 2D6
T9 construct: purchased BD Biosciences
T9 sequence (P10635 whole entry): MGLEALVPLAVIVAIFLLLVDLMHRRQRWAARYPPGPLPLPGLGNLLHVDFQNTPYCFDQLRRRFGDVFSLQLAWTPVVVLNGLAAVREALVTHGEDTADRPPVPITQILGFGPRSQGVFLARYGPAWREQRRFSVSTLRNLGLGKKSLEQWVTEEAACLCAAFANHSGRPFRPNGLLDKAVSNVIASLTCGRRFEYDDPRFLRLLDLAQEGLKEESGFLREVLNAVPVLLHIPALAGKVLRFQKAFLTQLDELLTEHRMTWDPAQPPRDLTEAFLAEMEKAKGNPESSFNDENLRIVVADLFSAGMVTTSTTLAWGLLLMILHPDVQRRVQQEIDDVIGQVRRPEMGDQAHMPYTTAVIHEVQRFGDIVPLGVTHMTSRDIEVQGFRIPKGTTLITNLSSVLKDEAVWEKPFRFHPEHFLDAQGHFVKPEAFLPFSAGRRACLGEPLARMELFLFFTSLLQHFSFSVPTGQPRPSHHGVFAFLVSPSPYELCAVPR
Experimental: as §1

Kdr = Kdr (Homo sapiens, UniProt P35968); experiment: Kinase biochemical assay, Kdr
Btk = Btk (Homo sapiens, UniProt Q06187); experiment: Kinase biochemical assay, Btk
[2] = pKa of weakly basic and weakly acidic centers; assay type: physicochemical; settings: approximate
[3] = pH 1.4 (Simulated Gastric Fluid)
[4] = pH 4.5 (Simulated Intestinal fluid)
[5] = pH 6.8 (Simulated Intestinal fluid)
[6] = read-out: pKa of N-7 of the pyrrolo[2,3-b]pyridine portion (weakly basic)
[7] = read-out: pKa of the sulfonamide nitrogen (weakly acidic)

T1 sequence (P11712 whole entry): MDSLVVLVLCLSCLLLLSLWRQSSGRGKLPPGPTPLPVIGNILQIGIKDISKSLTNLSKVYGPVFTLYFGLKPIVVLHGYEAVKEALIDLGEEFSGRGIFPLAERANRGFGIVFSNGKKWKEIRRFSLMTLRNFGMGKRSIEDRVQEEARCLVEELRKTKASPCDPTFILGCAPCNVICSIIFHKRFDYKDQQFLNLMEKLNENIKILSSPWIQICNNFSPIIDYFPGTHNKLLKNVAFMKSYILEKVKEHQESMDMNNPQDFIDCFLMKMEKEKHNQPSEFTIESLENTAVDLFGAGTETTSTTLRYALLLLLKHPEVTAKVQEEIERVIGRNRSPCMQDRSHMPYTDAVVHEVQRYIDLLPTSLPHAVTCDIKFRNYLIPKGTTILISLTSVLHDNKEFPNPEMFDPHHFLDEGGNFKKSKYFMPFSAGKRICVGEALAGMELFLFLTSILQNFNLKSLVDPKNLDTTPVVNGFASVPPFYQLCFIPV

| Compound | IC50 (CYP2C9) [µM] | IC50 (c-Raf-1) [µM] | IC50 (CYP1A2) [µM] | IC50 (CYP3A4(BQ)) [µM] | IC50 (Fms) [µM] | turbidity threshold (L, M, H) [1, 3] | turbidity threshold (L, M, H) [1, 4] | turbidity threshold (L, M, H) [1, 5] | turbidity threshold (L, M, H) ([1]; pH 7.4 (Hepes Buffer)) | IC50 (B-Raf) [µM] | IC50 (CYP3A4(BFC)) [µM] | IC50 (Src) [µM] | IC50 (TrkA) [µM] | IC50 (CYP2C19) [µM] | IC50 (B-Raf mutant V600E) [µM] | IC50 (CYP2D6) [µM] | IC50 (Kdr) [µM] | IC50 (Btk) [µM] | pKa [2, 6] | pKa [2, 7] | further results |
| --- | --- | --- | --- | --- | --- | --- | --- | --- | --- | --- | --- | --- | --- | --- | --- | --- | --- | --- | --- | --- | --- |
| N#Cc1ccnc2[nH]cc(C(=O)c3c(F)ccc(NS(=O)(=O)c4ccc(C(F)(F)F)cc4)c3F)c12 [Compound P-0001, N-[3-(4-cyano-1H-pyrrolo[2,3-b]pyridine-3-carbonyl)-2,4-difluoro-phenyl]-4-trifluoromethyl-benzenesulfonamide] | > 10 | < 0.1 | > 10 | > 10 | > 10 | L (low solubility if the threshold concentration is <31.3 μM) | L (low solubility if the threshold concentration is <31.3 μM) | L (low solubility if the threshold concentration is <31.3 μM) | M (moderate solubility if the threshold concentration is 31.3 μM to 250 μM) | < 0.1 | > 10 | 1 to 10 | 1 to 10 | > 10 | < 1 | > 10 | > 10 | > 10 | 4 to 5 | ~7 | IC50 (Kit): 1 to 10 µM; IC50 (Hgk): > 10 µM |
| C#Cc1ccnc2[nH]cc(C(=O)c3c(F)ccc(NS(=O)(=O)c4ccc(C(F)(F)F)cc4)c3F)c12 [Compound P-0002, N-[3-(4-ethynyl-1H-pyrrolo[2,3-b]pyridine-3-carbonyl)-2,4-difluoro-phenyl]-4-trifluoromethyl-benzenesulfonamide] | < 5 | < 0.1 | > 10 | > 10 | > 10 | L (low solubility if the threshold concentration is <31.3 μM) | L (low solubility if the threshold concentration is <31.3 μM) | M (moderate solubility if the threshold concentration is 31.3 μM to 250 μM) | M (moderate solubility if the threshold concentration is 31.3 μM to 250 μM) | < 0.1 | 5 to 10 | ~1 | > 10 | > 10 | < 1 | > 10 | ~1 | > 10 | 4 to 5 | ~7 |  |
